Columns and labels:
[1] = system: Wild-type N2 C. elegans worms; experiment: Nile Red staining of fat accumulation in wild-type N2 C. elegans; type: in vivo; conditions: overnight
Procedure: Wild-type N2 C. elegans worms were grown on OP50 bacteria and exposed overnight to vehicle (0.1% ethanol) alone or with 10, 50 or 100 μM of resveratrol (in ethanol). Fat accumulation was visualized with Nile Red staining, as described further below and in Ashrafi K, et al. Nature 421:268-27 (2003).
Synchronized starved L1 worms were grown in the presence of Nile Red. Strains were grown on NGM plates at 25° C. for approximately 48 hours until the young adult stage was reached. 20-30 young adult worms were then washed 2× with M9 buffer and transferred to new NGM/Nile red experimental plates that contained either OP50 or HTT5 E. coli carrying the L4440 RNAi control vector. For experiments comparing the effect of nicotinamide and resveratrol on fat mobilization, OP50 plates were coated with vehicle alone or Nicotinamide (in PBS), or vehicle alone and Resveratrol (in Ethanol or DMSO).
Resveratrol (Indofine #024964) was dissolved in Ethanol or DMSO to a 10 mM stock solution. Resveratrol was added to 60 mm NGM agar dishes containing either OP50 or RNAi expressing bacteria (HT115) to a final concentration of 10 μm, 50 μm, and 100 μM. Nile Red was also added to plates to a final concentration of 0.05 μg/ml. Nicotinamide (Supelco #47865-U) was diluted in PBS including Nile Red and added to […] dishes containing OP50 to a final concentration of 1 mM, 10 mM, or 100 mM.
Nile Red: Nile Red Powder (Sigma #N-3013) was dissolved in acetone at 500 μg/ml, diluted in 1× Phosphate Buffered Saline (PBS) including appropriate drug and applied to surface of Nematode Growth Media (NGM) plates previously seeded with OP50 or RNAi bacteria, at a final concentration of 0.05 μg/ml. Fat content was monitored and recorded by fluorescence microscopy.
Nile Red Staining was visualized by using a Nikon TE2000S microscope equipped with a CY3 filter (emission 535-685 nm). Images were captured using a SPOT RT monochrome digital camera attached to the Nikon Microscope with SPOT RT software v3.5. All Nile red images were acquired using identical settings and exposure times and then changed to red palette.

[2] = system: 3T3-L1 cells; experiment: Adipocyte differentiation and fat content by Oil Red O staining, 3T3-L1 cells; type: cell-based
Procedure: To obtain evidence that resveratrol affects fat metabolism in a physiologically relevant cell, we examined the effect of increasing concentrations of resveratrol on 3T3-L1 and NIH3T3 cell differentiation and fat content. 3T3-L1 or NIH3T3 cells were grown to confluence and allowed to pack in for 2 days at which point differentiation was initiated by addition of isobutylmethylxanthine, dexamethasone and insulin in the presence of vehicle (ethanol alone) or resveratrol at concentrations of 0, 12.5 and 25 μM. After 10 days of differentiation, fat content was assessed by Oil Red O staining, as described below. The results, which are shown in FIG. 12, indicate that concentrations of 25 μM or higher resveratrol decreased the quantity of cellular fat in 3T3-L1 and NIH3T3 cells. The results in NIH3T3 cells confirm the results obtained in C. elegans.
We then infected 3T3 preadipoctyes/adipocytes with pMX alone or pMX encoding PPAR-γ and examined the effect of resveratrol on 3T3 cell differentiation. 3T3-L1 and NIH3T3 cells were infected with a plasmid expressing GFP or PPAR-γ and grown to confluence. […]
3T3-L1 and NIH3T3 cells were maintained in DMEM plus 10% calf serum. […] The staining of adipocytes with Oil Red-O and quantitation was performed as described previously (Ramirez-Zacarias J L, Castro-Munozledo F, Kuri-Harcuch W. Histochemistry. 1992 July; 97(6):493-7). […]

[3] = system: HepG2 cells; experiment: Oxidation of 14C-palmitate in HepG2 cells; type: cell-based; conditions: resveratrol 10 μM in 1% DMSO, AICAR 500 μM in H2O, metformin 1 mM in H2O; 4 hours; vehicle = 1
Procedure: Oxidation of 14C-palmitate to acid-soluble products (modified from H4IIEC3 cells [Witters, L. A. and B. E. Kemp, Insulin activation of acetyl-CoA carboxylase accompanied by inhibition of the 5′-AMP-activated protein kinase. J Biol Chem, 1992. 267(5): p. 2864-7] and HepG2 cells were maintained as described above. Cells (10^6 cells/T25) were seeded in a T25 flask one day prior to the experiment. On the day of the experiment cells were washed with assay buffer (114 mM NaCl, 4.7 mM KCL, 1.2 mM KH2PO4, 1.2 mM MgSO4, 11 mM glucose) before labeling with 14C-palmitate (0.4 μCi/ml) in presence of vehicle, or resveratrol (10 μM), or AICAR (500 μM) for 4 hours.
At the end of incubation, the cap of each T25 flask was replaced with a stopper and a 1′×1.5″ Whatman filter paper soaked with 250 μl 2N NaOH. Each flask was injected with 2 ml of 6N HCL, placed in a horizontal position for 10 minutes and left standing overnight. The next morning, 1 ml H2O and 61 μl NaOH were added to a glass scintillation vial and the filter papers from each T25 flask were transferred to their respective vial. 10 ml Aquasol was added to each vial and allowed to stand for 2 hours, after which the vials were vortexed to dissolve the […] and counted in the scintillation counter. The results were expressed as nmols/h/106 cells and shown as the fold effect. ^14CO2 production ranged from 0.3 to 1.8 nmols/h/106 cells. The experiment was repeated three times.

## Oc1ccc(/C=C/c2cc(O)cc(O)c2)cc1 [resveratrol, 3,5,4′-Trihydroxy-trans-stilbene]
[1]; 10 μM or 50 μM
  fat accumulation: marked decrease in fat accumulation
[1]; 100 μM
  reduction of fat accumulation: 90%
[2]; 10 days of differentiation, 0, 12.5 and 25 μM tested, Oil Red O
  concentrations that decreased the quantity of cellular fat: ≥ 25 µM
[2]; cells overexpressing PPAR-γ, 0, 25 or 50 μM, eight days of differentiation
  inhibition of 3T3 preadipocyte differentiation: partially negated inhibition of 3T3 preadipocyte differentiation by resveratrol
[3]
  14C-CO2 production (Fold Effect): 6 Fold Effect

— patent US9597347B2, “Compositions for treating obesity and insulin resistance disorders” (President and Fellows of Harvard College, priority 2003, dated 2017)
